Data as given in ChEMBL document CHEMBL3507680, “University of Dundee, Gates Library screen for HepG2 cell viability”.

Experiment: Human HepG2 cell viability assay in 384 well format
Assay type: toxicity, cell-based
Design: dose 125 nL, time 70.5 hour; concentration not given beside the values
Conditions: HepG2 cells, read-out: Inhibition

SMILES | cytotoxicity at 70.5 h [%]
O=C(c1ccccc1)C1CCN(C(=O)CC2COCCN2)CC1 (stereo unspecified) | 1.52
Cc1nn(CC(C)C)c(N(C)C)c1CNCc1ccccc1CO | -0.0473
CS(=O)(=O)NC[C@]12COC[C@H]1CN(C(=O)C1CCCCC1)C2 | -8.19
CC(NC(=O)NCCCn1cncn1)c1ccc2c(c1)CC(=O)N2 (stereo unspecified) | -1.37
Cc1cc(C(=O)N2CCc3nnc(N)cc3C2)c(C)n1C1CC1 | -12.1
CS(=O)(=O)N1CCCC12CCCN(c1nccs1)C2 (stereo unspecified) | -3.55
N#Cc1ccc(OC2CCN(C(=O)c3ccc4c(c3)OCO4)CC2)nc1 | 17.3
N#Cc1cccc(CN2CCN(Cc3cscn3)CC2)c1 | -10
Cc1cc(C)n(-c2ccc(N3CCC4(CC3)OCCO4)nc2)n1 | 3.59
Cc1cnc(C(=O)Nc2cc(F)ccc2OCC2CCCO2)cn1 (stereo unspecified) | -6.23
CCNC(=O)NCc1nn(CCN2CCCC2)c(=O)c2ccccc12 | -5.36
COc1cc(OC)cc(C(=O)Nc2ncnc3c2CCC3)c1 | 59
O=C(C1CCOC1)N1C[C@H]2CN(Cc3nccs3)C[C@H]2C1 (stereo partly specified) | -2.75
N#Cc1cn(CCN2CCc3ccccc3C2)c(=O)[nH]c1=O | 0.215
CN1CCCc2cc(CNC(=O)c3ccc(-n4cnnc4)cc3)ccc21 | -2.87
CN(Cc1ccccc1O)C(=O)Nc1cc(F)cc(N2CCCC2)c1 | -7.37
COc1ccc(NC(=O)CCC2CCCN(Cc3ncon3)C2)cc1Cl (stereo unspecified) | -7.33
CCOC(=O)[C@H]1[C@@H](O)C(=O)N(C)C12CCN(C(=O)CC(C)C)CC2 | -6.09
CC(C)n1c2ccccc2c2c1cc(C(=O)NC1CC1)n2C(=O)N(C)C | 1.81
Cc1nn(C)cc1-c1nn2c(C(F)(F)F)nnc2s1 | -9.41
Cc1cc(NC(=O)NCC(O)COc2ccccc2)n(C)n1 (stereo unspecified) | -11.6
COc1ccc2oc(C(C)NC(=O)NC3CCN(C)CC3)c(C)c2c1 (stereo unspecified) | -13.4
CC(Cn1cccn1)NCCCc1nc(-c2cccs2)no1 (stereo unspecified) | 1.95

SMILES | cytotoxicity at 70.5 h [%]
CCn1nc2c(cc1=O)CN(Cc1nc(CCOC)no1)CC2 | -16
CNC(=O)C(C)(C)N1CCC[C@H]1C(=O)NCCN1CCCC1 | 5.17
CNCc1cn(C[C@H]2C[C@@H]3CCN2C[C@@H]3C(=O)NC2CCCCC2)nn1 | -5.79
Cc1nc(CN(C)C2CCN(CCCOc3ccc(F)cc3)C2)no1 (stereo unspecified) | 22.2
O=C1CO[C@H]2CN(Cc3ccc4c(c3)OCO4)C[C@H]2N1 | -7.08
Cc1nc(C)c(C(C)NC(=O)NCCNc2cccc(F)c2C#N)s1 (stereo unspecified) | -8.61
Fc1cc(Cl)cnc1N1CCCC(c2nccn2CC2CC2)C1 (stereo unspecified) | 22.7
Cc1nnc(C(C)NCC2(c3c(F)cccc3F)CCCC2)o1 (stereo unspecified) | -2.47
COC(=O)CCN(C)Cc1cc(Br)cs1 | -21.1
CS(=O)(=O)NCC1CCCN(C(=O)c2cc3ccccc3o2)C1 (stereo unspecified) | -3.7
CC(C)COC(=O)N1CC(=O)N(Cc2ccc(Cl)cc2)CC(O)C1 (stereo unspecified) | -3.08
CCCn1cc(C(=O)NCCc2ccc3c(c2)OCO3)c(C)n1 | -4.51
OCCN(Cc1nc(-c2ccc3c(c2)OCO3)no1)Cc1cccs1 | -16.8
CC1CN(c2ncnc3cccc(F)c23)CCO1 (stereo unspecified) | 10.6
O=C(O)c1nnn(-c2cccc(C(F)(F)F)c2)c1C1CC1 | -3.12
CC(C)c1cc(N2CC[C@H](F)C2)n2nccc2n1 | 2.77
COCCNC(=O)[C@H]1CN(Cc2scnc2C)C[C@H]2OCC[C@@H]12 | -3.43
O=C1COC2(CCN(S(=O)(=O)C3CC3)CC2)CN1c1ccsc1 | -17.5
O=C(c1ccc(-n2cccn2)nc1)N1CCCN(c2cccnn2)CC1 | -14.8
Cc1cnc(C(=O)N2CCC(C(=O)c3cc(F)ccc3F)CC2)cn1 | -5.07
Cn1cc(NC(=O)Nc2ccc3c(c2)OCO3)cn1 | -8.14
CCCNC(=O)Cn1c(C)nn(C(C)(C)C)c1=O | 9.3
CC1CN(S(=O)(=O)c2cc(S(C)(=O)=O)ccc2Br)c2cccnc2O1 (stereo unspecified) | 1.23

SMILES | cytotoxicity at 70.5 h [%]
Cc1cc(=O)[nH]c(-n2nc(-c3ccccc3)cc2N)n1 | 12.5
CC(C)c1nnc2ccc(N3CCC(C(N)=O)CC3)nn12 | 3.97
Cc1nc(CN2CCOCC3(CCN(c4ncccn4)C3)C2)cs1 (stereo unspecified) | -3.76
Cc1cnc(C)c(N2CCCC(CO)(Cc3ccccc3C)C2)n1 (stereo unspecified) | 11.4
CN1CCN(C(=O)C2CCN(c3cccnn3)C2)CC1 (stereo unspecified) | -6.3
N#CC1(c2ccccc2)CCN(C(=O)C2CCCN(C(N)=O)C2)CC1 (stereo unspecified) | 43.9
Cn1cc(C(=O)N2CCN(c3ccccc3)CC2)ccc1=O | -6.86
CC(C)(C)C1SCC(=O)Nc2c1c(O)nn2C1CCCCC1 (stereo unspecified) | 8.92
CCC1=N[C@@]2(CC[C@@H]3CN(CC4CC4)C[C@@H]32)C(=O)N1C | -14.1
CCOc1ccc2cc(C(=O)NCCC(=O)N(C)C)[nH]c2c1 | -7.75
COc1ccc(C[C@H]2CN(c3nnc(C)s3)CC[C@@H]2OC)cc1 | -0.42
CC(C)(C)OC(=O)NCCNC(=O)c1ccc(-c2ccco2)[nH]c1=O | -0.98
COc1c(CNCc2ccc(CN3CCOCC3)cc2)c(C)nn1C | 5.61
COCCC(=O)N1CCCC1c1cccc(C)c1C (stereo unspecified) | 23.9
CCc1noc(CCC(=O)N[C@@H]2CC[C@@H](n3ccnc3)[C@@H]2O)n1 | -8.61
CCCc1nnc(NC(=O)NC2CCOc3ccccc32)s1 (stereo unspecified) | -4.65
Cc1nc[nH]c1CN(C)CC1CCCN(CCc2ccc(Cl)cc2)C1 (stereo unspecified) | 20.5
O=C(NCC(F)(F)F)C1CCCN(Cc2ccno2)C1 (stereo unspecified) | -3.85
CC(C)(C)c1cc(=O)[nH]c(C2(N)CCCCC2)n1 | -4.98
COc1ccc2cc(NC(=O)CCCNc3ncccn3)cnc2c1 | -30.3
CN(Cc1nnc(C2CC2)n1C)S(=O)(=O)c1ccccc1F | 4.23
CN(Cc1cccc(O)c1)C(=O)c1ccc(CCC(C)(C)O)cc1 | 0.182
CCO[C@@H]1CCN(C(=O)c2cnc(C)cn2)[C@@H]1Cc1cnn(C)c1 | -11.6

SMILES | cytotoxicity at 70.5 h [%]
CN(C)C(=O)[C@@H]1CCO[C@@H]2CCN(Cc3ccc4c(c3)OCO4)C[C@@H]21 | -21.3
O=C1CN(S(=O)(=O)CC(F)(F)F)CC(O)CN1CCCc1ccccc1 (stereo unspecified) | -3.16
c1cn(-c2cnc(C3CCCNC3)cn2)cn1 (stereo unspecified) | 22.8
CC(C)CN1C(=O)CO[C@@H]2CN(C(=O)CC(F)(F)F)C[C@H]21 | -1.53
Cc1noc(C)c1CS(=O)(=O)CC(=O)N(C)Cc1cccc(F)c1 | -3.7
COc1ccc2c(c1)nc1n2[C@@H](CNCc2ccccc2)COC1 | 10.1
Cc1cc(C(C)NC(=O)N2CCC(n3cncn3)CC2)c(C)s1 (stereo unspecified) | -17.7
CCC(C)NC(=O)Nc1cccc(OCC#N)c1 (stereo unspecified) | -12.4
CC(C)c1noc(CN2CCN(C(=O)c3cccc(F)c3)CC2)n1 | -8.17
CCc1nc(CN2CCc3c(ncn3C3CC3)C2)cs1 | -17
Cc1ncsc1C(=O)N1CCCCC1c1cc2nc(C)c(C)c(O)n2n1 (stereo unspecified) | -4.23
Cc1oncc1C(=O)NCc1ccnc(OCC(F)(F)F)c1 | 11
COc1cccc2c1ccn2CC(=O)Nc1nc[nH]n1 | -11.8
COc1ncccc1CN1CC[C@]2(C[C@@H](OCc3ccccn3)CO2)C1 | -13.8
O=C(NCc1nnc2n1CCC2)c1cccc(Br)c1 | -9.88
Cn1cc(C#N)c(=O)n(CC(O)c2ccccc2F)c1=O (stereo unspecified) | -13.2
O=S(=O)(NCCNc1cc(-n2cccc2)ncn1)c1cccs1 | -2.52
CC(=O)c1cn(CC(=O)NC(C(=O)O)C(C)C)c2ccccc12 (stereo unspecified) | 0.278
OCCCNc1nc(O)c2c(n1)-c1ccccc1CC21CCCCC1 | -9.73
O=C(NC1CCCCC1)c1ccc(Oc2ccc3nncn3n2)cc1 | -7.56
COc1ccccc1CNC(=O)COc1c(C)n(C)ccc1=O | -20.3
C=C(C)COc1ccc(C(CC(=O)OC)c2oc(C)cc(=O)c2O)cc1 (stereo unspecified) | -0.596
Cn1cnc(-c2nc(C(=O)NCC3CCCO3)c3ccccn23)c1 (stereo unspecified) | -0.333

SMILES | cytotoxicity at 70.5 h [%]
CN(CCNC(=O)c1cccnc1)S(C)(=O)=O | -5.32
CCOCCOC(C)C(=O)NCc1cn2cc(Br)ccc2n1 (stereo unspecified) | -1.73
Cc1nc(CC(=O)N2CCC3(CC2)CC(=O)N(CC2CCCO2)C3)cs1 (stereo unspecified) | -3.04
CNC(=O)Cc1ccc(-n2ccnc2-c2cccc(C(=O)O)c2)cc1 | 17.5
O=S(=O)(NCC1(O)CCCC1)c1ccccc1Br | -0.293
CNC(=O)c1cc(C)nc(C2(C)CCCN2c2cc(C)ncn2)n1 (stereo unspecified) | -6.05
COc1ccc(CNC2CCCc3nc(N(C)C)ncc32)c(OC)c1 (stereo unspecified) | -8.28
CN1CCCC(CCC(=O)N2CCc3onc(C(=O)N(C)C)c3C2)C1 (stereo unspecified) | -1.71
Cc1cnc(CCNc2cccc(CC3CCCNC3)n2)s1 (stereo unspecified) | 0.312
O=C(C1CC(F)(F)C1)N1C[C@@H]2CN(CC3CC3)CCO[C@@H]2C1 | 26
CC(=O)NCCNc1nc(-c2ccccn2)nc2c1c(C)nn2C | 1.86
Cc1nc[nH]c1CN1CCN(C(=O)CCC(F)(F)F)[C@H]2CS(=O)(=O)C[C@H]21 | -9.24
Cc1cnc(NC2CCc3c(ccc(=O)n3CC3CC3)C2)nc1 (stereo unspecified) | -5.47
CCS(=O)(=O)c1cccc(C(=O)Nc2cccc3c2C(=O)N(C)C3=O)c1 | 31
C[C@@H]1CN(Cc2cc3ccccc3n2C)CC[C@]1(C)O | 16.1
COc1cc(CNC(C)Cn2cccn2)cc(OC)c1 (stereo unspecified) | -9.25
CC(C)NC(=O)N1CCC(c2nnc3ccc(C(=O)N(C)C)cn23)C1 (stereo unspecified) | -1.02
O=C(NCC1CC1)C1=NOC2(CCN(S(=O)(=O)c3cccs3)C2)C1 (stereo unspecified) | -10
O=C(CNC(=O)N1CCc2c([nH]c3ccc(Cl)cc23)C1)N1CCOCC1 | 37.5
